Columns and labels:
[1] = Metabolic stability in rat liver microsomes (RLM); conditions: for RLM, metabolized or not (R / NR): last time point 120 min; for RLM, % (half-life as % vs. the related nondeuterated compound): values in square brackets are within 10% (assay's accuracy), no deuteration effect; for metabolic stability in RLM, in words: deuterated vs. comparator
hrMAO-A = target: T1, hrMAO-A (Homo sapiens, UniProt P21397); assay: Metabolic stability in the presence of hrMAO-A; type: in vitro ADME; conditions: for MAO, metabolized or not (R / NR): last time point 120 min
T1 construct: purchased XenoTech Lot #8213001
T1 sequence (P21397 1-527): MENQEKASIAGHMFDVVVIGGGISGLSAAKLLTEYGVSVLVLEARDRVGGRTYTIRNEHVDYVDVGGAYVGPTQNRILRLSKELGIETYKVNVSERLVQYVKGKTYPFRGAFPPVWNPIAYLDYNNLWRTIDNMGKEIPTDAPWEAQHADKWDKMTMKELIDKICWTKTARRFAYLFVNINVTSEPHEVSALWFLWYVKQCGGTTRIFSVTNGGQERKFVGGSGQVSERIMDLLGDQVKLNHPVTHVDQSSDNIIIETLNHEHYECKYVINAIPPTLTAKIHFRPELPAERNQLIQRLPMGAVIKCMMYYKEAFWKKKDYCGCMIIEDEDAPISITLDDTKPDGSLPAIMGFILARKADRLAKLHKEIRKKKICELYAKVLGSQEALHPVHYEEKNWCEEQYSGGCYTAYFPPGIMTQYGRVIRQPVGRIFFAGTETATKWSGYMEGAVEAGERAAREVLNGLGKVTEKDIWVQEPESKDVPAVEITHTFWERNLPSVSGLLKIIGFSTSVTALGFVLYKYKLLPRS
Description: The reaction mixture was prepared as described below. The co-dosed TAs were added into the reaction mixture at a final concentration of 1 microM each. The positive control, kynuramine (25 microM), was run simultaneously with the TAs in a separate reaction. The reaction mixture (without TAs or kynuramine) was equilibrated in a shaking water bath at 37° C. for 5 minutes. The reaction was initiated by the addition of the TAs or kynuramine, and the mixture was incubated in a shaking water bath at 37° C. Aliquots (100 microL) of the TA reaction mixture were withdrawn at 0, 5, 10, 20, 30, 60, and 120 minutes. Aliquots (100 microL) of the positive control reaction mixture were withdrawn at 0 and 30 minutes. TA and kynuramine samples were immediately combined with 100 microL of ice-cold 100% MeCN containing 0.1% formic acid and IS to terminate the reaction. The samples were then mixed and centrifuged to precipitate proteins. All TA samples were assayed by LC-HRAMS. The PARR (analyte to IS) at each time point was compared to the PARR at time 0 to determine the percent remaining at each time point. Reaction composition: hrMAO 0.02 mg/mL; Potassium Phosphate, pH 7.4 100 mM; Magnesium Chloride 5 mM; Test Articles (each) 1 microM.

[2] = oral; cited from earlier work
[3] = PK study in rats, cassette dosing, oral gavage or catheter; type: in vivo; conditions: rat, 5 mg/kg, % change vs. non-deuterated material; for Deuterium kinetic isotope effect (% change) F: bioavailability
Description: (§1) The key PK parameters (presented as a % change vs. non-deuterated materials) are presented in Table 3 to include half-life (T1/2), area under the curve (AUC), bioavailability (F) and blood-to-plasma ration (BPR). Pharmacokinetics of the deuterated tryptamines was studied in rats. In a typical experiment, run as a cassette dosing, two groups of 5 Wistar female rats (200-250 g) with surgically inserted jugular vein catheter (Charles River, Andover, Mass.) were fasted for 12 h and then administered 5 mg/kg of the deuterated and 5 mg/kg of the related non-deuterated analog, by oral gavage or via a catheter for each group. At time points 0, 15, 30, 60 min, and 2, 4, 8, and 24 h, the resulting plasma was analyzed for the parent molecule using LC/MS spectroscopy. Two separate groups of 5 animals were used for determining blood-to-plasma ratio (BPR). Each group was sacrificed at time points 15 and 30 min, respectively, and the concentration of the parent drug was determined in the […] and plasma by LC/MS spectroscopy.

[4] = Blood-to-plasma ratio (BPR), drug in brain and plasma of rats; type: in vivo; conditions: rat, % change vs. non-deuterated material
Description: as §1

## C=CCN(CC=C)CCc1c[nH]c2ccccc12
[1]; RLM
  RLM, metabolized or not (R / NR): R

## C=CCNCCc1c[nH]c2ccccc12
[1]; RLM
  RLM, metabolized or not (R / NR): R

## [2H]C([2H])([2H])C([2H])([2H])NC([2H])([2H])C([2H])([2H])c1c[nH]c2cccc(O)c12
[1]; RLM
  RLM, % (half-life as % vs. the related nondeuterated compound): [93] %

## CCN(CC)CCc1c[nH]c2ccccc12
[1]; RLM
  RLM, metabolized or not (R / NR): R

## [2H]C([2H])(c1c[nH]c2ccc(OC)cc12)C([2H])([2H])N(CC)CC
[1]; RLM
  RLM, % (half-life as % vs. the related nondeuterated compound): [95] %

## CCN(CC)CCc1c[nH]c2ccc(OC)cc12
[1]; RLM
  RLM, metabolized or not (R / NR): R

## CCN(CC)CCc1c[nH]c2ccc(O)cc12
[1]; RLM
  RLM, metabolized or not (R / NR): R

## CCN(CC)CCc1c[nH]c2cccc(OC)c12
[1]; RLM
  RLM, metabolized or not (R / NR): R

## [2H]c1ccc2[nH]c([2H])c(CCN([2H])CC)c2c1O
[1]; RLM
  RLM, metabolized or not (R / NR): R

## [2H]C([2H])(NCC)C([2H])([2H])c1c[nH]c2ccccc12
hrMAO-A; MAO-A, values in square brackets are within 10% (assay's accuracy), no deuteration effect
  MAO, % (half-life as % vs. the related nondeuterated compound): 140%

## [2H]C([2H])(NCC)C([2H])([2H])c1c[nH]c2cccc(O)c12
[1]; RLM
  RLM, % (half-life as % vs. the related nondeuterated compound): [94] %

## CCNCCc1c[nH]c2cccc(O)c12
[1]; RLM
  RLM, metabolized or not (R / NR): R

## [2H]C([2H])(c1c[nH]c2cccc(OC)c12)C([2H])([2H])N(C)C
[1]; RLM
  RLM, % (half-life as % vs. the related nondeuterated compound): 190%

## [2H]C([2H])(NC)C([2H])([2H])c1c[nH]c2cccc(O)c12
[1]; RLM
  RLM, % (half-life as % vs. the related nondeuterated compound): 160%

## CC(C)NCCc1c[nH]c2ccccc12
[1]; RLM
  RLM, metabolized or not (R / NR): R

## CC(C)NCCc1c[nH]c2cccc(O)c12
[1]; RLM
  RLM, metabolized or not (R / NR): R

## [2H]C([2H])(c1c[nH]c2cccc(O)c12)C([2H])([2H])N(C(C)C)C(C)C
[1]; RLM
  RLM, % (half-life as % vs. the related nondeuterated compound): [97] %

## CC(C)N(CCc1c[nH]c2cccc(O)c12)C(C)C
[1]; RLM
  RLM, metabolized or not (R / NR): R

## COc1cc(CCNCc2ccccc2OC)c(OC)cc1Cl [2C-C-NBOMe, 2-(4-Chloro-2,5-dimethoxyphenyl)-N-[(2-methoxyphenyl)methyl]ethan-1-amine]
[2]
  orally active dose: ≥ 25 µg

## [2H]C([2H])(Cc1c[nH]c2ccc(OC)cc12)N(C)C [5-MeO-DMT-α,α-d2]
[3]
  Deuterium kinetic isotope effect (% change) AUC: 60%
  Deuterium kinetic isotope effect (% change) T1/2: 30%
  Deuterium kinetic isotope effect (% change) F: 200%
[4]
  Deuterium kinetic isotope effect (% change) BPR, 15 min: 120%
  Deuterium kinetic isotope effect (% change) BPR, 30 min: 180%

## CN(C)CCc1c[nH]c2ccccc12 [DMT, reference compound]
hrMAO-A; hrMAO-A, Table 3
  % Remaining of Initial 0 min: 100%
  Half-life: 0.453 h
[1]; RLM, Table 2
  % Remaining of Initial 0 min: 100%
[1]; RLM, 20 min, Table 2
  % Remaining of Initial 20 min: 41.0%

## [2H]C([2H])(Cc1c[nH]c2ccccc12)N(C)C [DMT-d2]
hrMAO-A; hrMAO-A, Table 3
  % Remaining of Initial 0 min: 100%
  Half-life: > 2 h
hrMAO-A; hrMAO-A, 60 min, Table 3
  % Remaining of Initial 60 min: 76.0%
[1]; RLM, Table 2
  % Remaining of Initial 0 min: 100%
[1]; RLM, 60 min, Table 2
  % Remaining of Initial 60 min: 32.0%

## [2H]C([2H])(c1c[nH]c2ccccc12)C([2H])([2H])N(C)C [DMT-d4]
hrMAO-A; hrMAO-A, Table 3
  % Remaining of Initial 0 min: 100%
  Half-life: > 2 h
[1]; RLM, Table 2
  % Remaining of Initial 0 min: 100%

## [2H]C([2H])([2H])N(C([2H])([2H])[2H])C([2H])([2H])C([2H])([2H])c1c[nH]c2ccccc12 [DMT-d10]
hrMAO-A
  metabolism in the MAO-A enzymatic assay, in words: superiority
hrMAO-A; hrMAO-A, Table 3
  % Remaining of Initial 0 min: 100%
  Half-life: > 2 h
hrMAO-A; hrMAO-A, Table 5 (d8 and d10 analogs)
  % Remaining of Initial 0 min: 100.0%
hrMAO-A; hrMAO-A, 5 min, Table 5
  % Remaining of Initial 5 min: 99.0%
hrMAO-A; hrMAO-A, Table 5
  Half-life: > 2 h
[1]; RLM, Table 2
  % Remaining of Initial 0 min: 100%
[1]; RLM, Table 4 (d8 and d10 analogs)
  % Remaining of Initial 0 min: 100%
[1]; RLM, 10 min, Table 4
  % Remaining of Initial 10 min: 56.0%
[1]
  metabolic stability in RLM, in words: Further enhancement of metabolic stability

## [2H]c1[nH]c2c([2H])c([2H])c([2H])c([2H])c2c1C([2H])([2H])C([2H])([2H])N(C([2H])([2H])[2H])C([2H])([2H])[2H] [DMT-d15]
[1]
  metabolic stability in RLM, in words: no improvement in half-life

## [2H]C([2H])(Cc1c[nH]c2cccc(O)c12)N(C)C [PI-α,α-d2]
[3]
  Deuterium kinetic isotope effect (% change) AUC: 75%
  Deuterium kinetic isotope effect (% change) T1/2: 50%
  Deuterium kinetic isotope effect (% change) F: 45%
[4]
  Deuterium kinetic isotope effect (% change) BPR, 15 min: 100%
  Deuterium kinetic isotope effect (% change) BPR, 30 min: 150%

## CCNCCc1c[nH]c2ccccc12 [reference compound]
hrMAO-A; MAO-A
  MAO, metabolized or not (R / NR): R
[1]; RLM
  RLM, metabolized or not (R / NR): R

## CCN(C)CCc1c[nH]c2ccccc12 [reference compound]
hrMAO-A; MAO-A
  MAO, metabolized or not (R / NR): R
[1]; RLM
  RLM, metabolized or not (R / NR): R

## CCN(C)CCc1c[nH]c2ccc(OC)cc12 [reference compound]
hrMAO-A; MAO-A
  MAO, metabolized or not (R / NR): R
[1]; RLM
  RLM, metabolized or not (R / NR): R

## CCN(C)CCc1c[nH]c2ccc(O)cc12 [reference compound]
hrMAO-A; MAO-A
  MAO, metabolized or not (R / NR): R
[1]; RLM
  RLM, metabolized or not (R / NR): R

## CCN(C)CCc1c[nH]c2cccc(OC)c12 [reference compound]
hrMAO-A; MAO-A
  MAO, metabolized or not (R / NR): R
[1]; RLM
  RLM, metabolized or not (R / NR): R

## COc1ccc2[nH]cc(CCN(C)C)c2c1 [reference compound]
hrMAO-A; MAO-A
  MAO, metabolized or not (R / NR): R
[1]; RLM
  RLM, metabolized or not (R / NR): R

## CN(C)CCc1c[nH]c2ccc(O)cc12 [reference compound]
hrMAO-A; MAO-A
  MAO, metabolized or not (R / NR): R
[1]; RLM
  RLM, metabolized or not (R / NR): R

## COc1cccc2[nH]cc(CCN(C)C)c12 [reference compound]
hrMAO-A; MAO-A
  MAO, metabolized or not (R / NR): R
[1]; RLM
  RLM, metabolized or not (R / NR): R

## CNCCc1c[nH]c2ccccc12 [reference compound]
hrMAO-A; MAO-A
  MAO, metabolized or not (R / NR): R
[1]; RLM
  RLM, metabolized or not (R / NR): R

## CNCCc1c[nH]c2cccc(O)c12 [reference compound]
hrMAO-A; MAO-A
  MAO, metabolized or not (R / NR): R
[1]; RLM
  RLM, metabolized or not (R / NR): R

From patent US20230126298A1, “DEUYERATED TRYPTAMINE DERIVATIVE FORMULATIONS AND METHODS OF USE” (priority 2020, published 2023)
